Laboratory results published in patent publication US8501783B2, “Conformationally restricted urea inhibitors of soluble epoxide hydrolase” (The Regents of the University of California, priority 2006, dated 2013).
Where two headings read alike, the source gives them in different places.

What was measured:
human sEH = human sEH (Homo sapiens (Human), UniProt P34913); test: Inhibition of human soluble epoxide hydrolase (IC50; one of three substrate methods); assay type: biochemical;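 further: enzyme expressed in baculovirus and affinity-purified, assays run in triplicate, with substrate and read-out differing among the three methods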
Sequence of human sEH (P34913 whole entry): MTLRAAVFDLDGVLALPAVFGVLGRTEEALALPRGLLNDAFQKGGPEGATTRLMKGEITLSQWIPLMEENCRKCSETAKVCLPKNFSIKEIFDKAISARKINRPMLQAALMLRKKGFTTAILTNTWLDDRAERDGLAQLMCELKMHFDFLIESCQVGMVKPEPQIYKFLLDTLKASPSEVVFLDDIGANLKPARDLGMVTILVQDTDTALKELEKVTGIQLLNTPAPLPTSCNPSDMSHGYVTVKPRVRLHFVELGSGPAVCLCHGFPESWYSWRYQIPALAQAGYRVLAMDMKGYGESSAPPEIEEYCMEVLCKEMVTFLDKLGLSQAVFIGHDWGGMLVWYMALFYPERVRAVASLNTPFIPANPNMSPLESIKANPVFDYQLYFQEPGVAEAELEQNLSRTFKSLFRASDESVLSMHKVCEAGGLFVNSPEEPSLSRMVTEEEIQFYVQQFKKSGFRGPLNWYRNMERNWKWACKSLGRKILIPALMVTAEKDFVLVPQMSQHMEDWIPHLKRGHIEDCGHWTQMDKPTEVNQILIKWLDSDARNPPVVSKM

[1] = Pharmacokinetic screening in dogs, oral administration, plasma LC-MS/MS; settings: dog, plasma, po, 0.3 mg/kg

Compound | IC50 (human sEH; recombinant human sEH) | further results
CCCC(=O)N1CCC(CNC(=O)NC23CC4CC(CC(C4)C2)C3)CC1 [Compound 1120, N-((1-butyrylpiperidin-4-yl)methyl)-N′-(adamant-1-yl)urea] | 6.7 nM | –
CC(=O)N1CCC(CNC(=O)NC23CC4CC(CC(C4)C2)C3)CC1 [Compound 1156, N-((1-acetylpiperidin-4-yl)methyl)-N′-(adamant-1-yl)urea] | – | AUC [1]: 0.0817 µM·h
CCC(=O)N1CCC(CNC(=O)NC23CC4CC(CC(C4)C2)C3)CC1 [Compound 1162, N-((1-propanoylpiperidin-4-yl)methyl)-N′-(adamant-1-yl)urea] | 8.7 nM | –
COC(=O)c1cccc(C(=O)N2CCC(NC(=O)NC34CC5CC(CC(C5)C3)C4)CC2)c1 [Compound 1203, 3-[4-(3-Adamantan-1-yl-ureido)-piperidine-1-carbonyl]-benzoic acid methyl ester] | – | IC50 (human sEH): 1.1 nM
COC(=O)CCC(=O)N1CCC(NC(=O)NC23CC4CC(CC(C4)C2)C3)CC1 [Compound 1205, 4-[4-(3-Adamantan-1-yl-ureido)-piperidin-1-yl]-4-oxo-butanoic acid methyl ester] | – | IC50 (human sEH): 9 nM
COC(=O)CCC(=O)N1CCC(CNC(=O)NC23CC4CC(CC(C4)C2)C3)CC1 [Compound 1208, 4-{4-[(3-Adamantan-1-yl-ureido)-methyl]-piperidin-1-yl}-4-oxo-butanoic acid methyl ester] | 6.2 nM | –
COC(=O)c1cccc(C(=O)N2CCC(CNC(=O)NC34CC5CC(CC(C5)C3)C4)CC2)c1 [Compound 1209, 3-{4-[(3-Adamantan-1-yl-ureido)-methyl]-piperidine-1-carbonyl}-benzoic acid methy ester] | 4.1 nM | –
COC(=O)c1ccc(C(=O)N2CCC(CNC(=O)NC34CC5CC(CC(C5)C3)C4)CC2)cc1 [Compound 1211, 4-{4-[(3-Adamantan-1-yl-ureido)-methyl]-piperidine-1-carbonyl}-benzoic acid methyl ester] | 1.5 nM | –
COC(=O)CCCC(=O)N1CCC(CNC(=O)NC23CC4CC(CC(C4)C2)C3)CC1 [Compound 1212, 5-{4-[(3-Adamantan-1-yl-ureido)-methyl]-piperidin-1-yl}-5-oxo-pentanoic acid methyl ester] | 3.4 nM | –
O=C(NC1CCN(C(=O)c2ccncc2)CC1)NC12CC3CC(CC(C3)C1)C2 [Compound 1433, N-(1-(pyridine-4-carbonyl)piperidin-4-yl)-N′-(adamant-1-yl)urea] | – | IC50 (human sEH): 1.7 nM
O=C(NC1CCN(C(=O)c2cccnc2)CC1)NC12CC3CC(CC(C3)C1)C2 [Compound 1434, N-(1-(Pyridine-3-carbonyl)piperidin-4-yl)-N′-(adamant-1-yl)urea] | – | IC50 (human sEH): 2.1 nM
O=C(O)CCCC(=O)N1CCC(CNC(=O)NC23CC4CC(CC(C4)C2)C3)CC1 [Compound 1500, 5-{4-[(3-Adamantan-1-yl-ureido)-methyl]-piperidin-1-yl}-5-oxo-pentanoic acid] | 41.6 nM | –
O=C(O)CCCC(=O)N1CCC(NC(=O)NC23CC4CC(CC(C4)C2)C3)CC1 [Compound 1501, 5-[4-(3-Adamantan-1-yl-ureido)-piperidin-1-yl]-5-oxo-pentanoic acid] | – | IC50 (human sEH): 72.8 nM
O=C(O)CCC(=O)N1CCC(CNC(=O)NC23CC4CC(CC(C4)C2)C3)CC1 [Compound 1502, 4-{4-[(3-Adamantan-1-yl-ureido)-methyl]-piperidin-1-yl}-4-oxo-butanoic acid] | 174 nM | –
O=C(O)CCC(=O)N1CCC(NC(=O)NC23CC4CC(CC(C4)C2)C3)CC1 [Compound 1503, 4-[4-(3-Adamantan-1-yl-ureido)-piperidin-1-yl]-4-oxo-butanoic acid] | 254 nM | –
O=C(NC1CCN(C(=O)c2cccc(C(=O)O)c2)CC1)NC12CC3CC(CC(C3)C1)C2 [Compound 1505, 3-[4-(3-Adamantan-1-yl-ureido)-piperidine-1-carbonyl]-benzoic acid] | – | IC50 (human sEH): 10.1 nM
O=C(NC1CCN(C(=O)c2ccccc2C(=O)O)CC1)NC12CC3CC(CC(C3)C1)C2 [Compound 1507, 2-[4-(3-Adamantan-1-yl-ureido)-piperidine-1-carbonyl]-benzoic acid] | – | IC50 (human sEH): 161 nM
O=C(NC1CCN(C(=O)c2ccc(C(=O)O)cc2)CC1)NC12CC3CC(CC(C3)C1)C2 [Compound 1523, 4-[4-(3-Adamantan-1-yl-ureido)-piperidine-1-carbonyl]-benzoic acid] | – | IC50 (human sEH): 3.3 nM
O=C(NC1CCCCC1)NC12CN3CN(CN(C3)C1)C2 [Compound 1549, 1-Cyclohexyl-3-(1,3,5-triaza-tricyclo[3.3.1.1^3.7]dec-7-yl)-urea] | 13600 nM | –
CCCCCCCCCCCCNC(=O)NC1CCNCC1 [Compound 1550, 1-Dodecyl-3-piperidin-4-yl-urea] | 42.5 nM | –
CC(C)(C)OC(=O)N1CCC(NC(=O)NC2CCCCC2)CC1 [Compound 1551, 4-(3-Cyclohexyl-ureido)-piperidine-1-carboxylic acid tert-butyl ester] | 4.3 nM | –
O=C(NCC1CCN(C(=O)C(F)(F)F)CC1)NC12CC3CC(CC(C3)C1)C2 [Compound 1556] | 1.8 nM | –
O=C(NCc1ccncc1)Oc1cccc(-c2ccccc2)c1 [Compound 1557, Pyridin-4 ylmethyl-carbamic acid biphenyl-3-yl ester] | 11500 nM | –
O=C(NCc1cccnc1)Oc1cccc(-c2ccccc2)c1 [Compound 1559, Pyridin-3-ylmethyl-carbamic acid biphenyl-3-yl ester] | 23000 nM | –
O=C(Nc1ccc(OC(F)(F)F)cc1)NC1CCN(C(=O)C(F)(F)F)CC1 [Compound 1591, 1-[1-(2,2,2-Trifluoro-acetyl)-piperidin-4-yl]-3-(4-trifluoromethoxy-phenyl)-urea] | 0.4 nM | –
O=C(NC1CCCCC1)NC1CCNCC1 [Compound 1602] | 562 nM | –
O=C(NC1CCNCC1)NC1CCNCC1 [Compound 1604, 1,3-Di-piperidin-4-yl-urea] | 100000 nM | –
CC(=O)N1CCC(NC(=O)C23CC4CC(CC(C4)C2)C3)CC1 [Compound 1641, Adamantane-1-carboxylic acid (1-acetyl-piperidin-4-yl)-amide] | 12600 nM | –
O=C(N1CCC(NC(=O)C23CC4CC(CC(C4)C2)C3)CC1)C(F)(F)F [Compound 1643, Adamantane-1-carboxylic acid [1-(2,2,2-trifluoro-acetyl)-piperidin-4-yl]-amide] | 4210 nM | –
O=C(CC12CC3CC(CC(C3)C1)C2)NC1CCN(C(=O)C(F)(F)F)CC1 [Compound 1644] | 28.3 nM | –

Now from value to molecule, other results behind:

IC50 (human sEH; recombinant human sEH) | Compound | further results
1.7 nM | COC(=O)c1ccccc1C(=O)N1CCC(NC(=O)NC23CC4CC(CC(C4)C2)C3)CC1 [Compound 1202, 2-[4-(3-Adamantan-1-yl-ureido)-piperidine-1-carbonyl]-benzoic acid methyl ester] | –
7.6 nM | O=C(NCC1CCN(C(=O)c2ccccn2)CC1)NC12CC3CC(CC(C3)C1)C2 [Compound 1207] | –
1.8 nM | COC(=O)c1ccccc1C(=O)N1CCC(CNC(=O)NC23CC4CC(CC(C4)C2)C3)CC1 [Compound 1210, 2-{4-[(3-Adamantan-1-yl-ureido)-methyl]-piperidine-1-carbonyl}-benzoic acid methy ester] | –
5.4 nM | O=C(NCC1CCN(C(=O)c2ccncc2)CC1)NC12CC3CC(CC(C3)C1)C2 [Compound 1435] | –
7.3 nM | O=C(NCC1CCN(C(=O)c2cccnc2)CC1)NC12CC3CC(CC(C3)C1)C2 [Compound 1436, N-((1-(pyridine-3-carbonyl)piperidin-4-yl)methyl)-N′-(adamant-1-yl)urea] | –
43.6 nM | O=C(NCC1CCN(C(=O)c2cccc(C(=O)O)c2)CC1)NC12CC3CC(CC(C3)C1)C2 [Compound 1504, 3-{4-[(3-Adamantan-1-yl-ureido)-methyl]-piperidine-1-carbonyl}-benzoic acid] | –
407 nM | O=C(NCC1CCN(C(=O)c2ccccc2C(=O)O)CC1)NC12CC3CC(CC(C3)C1)C2 [Compound 1506, 2-{4-[(3-Adamantan-1-yl-ureido)-methyl]-piperidine-1-carbonyl}-benzoic acid] | –
11.8 nM | O=C(NCC1CCN(C(=O)c2ccc(C(=O)O)cc2)CC1)NC12CC3CC(CC(C3)C1)C2 [Compound 1522, 4-{4-[(3-Adamantan-1-yl-ureido)-methyl]-piperidine-1-carbonyl}-benzoic acid] | –
639 nM | CCCCCCCCCCCCNC(=O)Nc1ccc2[nH]ccc2c1 [Compound 1553, 1-Dodecyl-3-(1H-indol-5-yl)-urea] | –
87 nM | O=C(Nc1ccc2[nH]ccc2c1)NC1CCCCC1 [Compound 1554, 1-Cyclohexyl-3-(1H-indol-5-yl)-urea] | –
1330 nM | Cc1c(COC(=O)NCc2ccncc2)cccc1-c1ccccc1 [Compound 1558, Pyridin-4-ylmethyl-carbamic acid 2-methyl-biphenyl-3-ylmethyl ester] | –
4410 nM | Cc1c(COC(=O)NCc2cccnc2)cccc1-c1ccccc1 [Compound 1560, Pyridin-3-ylmethyl-carbamic acid 2-methyl-biphenyl-3-ylmethyl ester] | –
65300 nM | O=C(Oc1cccc(-c2ccccc2)c1)N1CCOCC1 [Compound 1561, Morpholine-4-carboxylic acid biphenyl-3-yl ester] | –
5020 nM | CCCCCCCCCCCCNC(=O)Nc1ccc2[nH]cnc2c1 [Compound 1568, 1-(1H-Benzoimidazol-5-yl)-3-dodecyl-urea] | –
457 nM | O=C(Nc1ccc2[nH]cnc2c1)NC1CCCCC1 [Compound 1569, 1-(1H-Benzoimidazol-5-yl)-3-cyclohexyl-urea] | –
2320 nM | O=C(Nc1ccc(OC(F)(F)F)cc1)NC1CCNCC1 [Compound 1570, 1-Piperidin-4-yl-3-(4-trifluoromethoxy-phenyl)-urea] | –
4.8 nM | O=C(NC1CCN(C(=O)c2ccccc2)CC1)NC1CCN(C(=O)c2ccccc2)CC1 [Compound 1605, 1,3-Bis-(1-benzoyl-piperidin-4-yl)urea] | –
0.8 nM | CN(C)c1cccc2c(S(=O)(=O)N3CCC(NC(=O)Nc4ccc(OC(F)(F)F)cc4)CC3)cccc12 [Compound 1710, 1-[1-(5-dimethylamino-naphthalene-1-sulfonyl)-piperidin-4-yl]-3-(4-trifluoromethoxy-phenyl)-urea] | –
